Assay results from patent US9408848B2, “Fluorescent CDK inhibitors for treatment of cancer” (Georgetown University, priority 2008, dated 2016).

Tests used:
[1] = system: T1, CDK1/cyclinA (Homo sapiens); test: Kinase assay ([γ-33P]-ATP, histone H1); assay type: biochemical; details: read-out: % inhibition of kinase activity, CDK1/cyclinA
T1 construct: purchased Millipore, Dundee, UK (screening service)
Procedure: (§1) The final reaction was carried out in a 25 μL solution.
(§2) Briefly assays were performed with a Biomek 2000 Laboratory Automation Workstation in a 96-well format (Beckman instruments, Palo Alto, Calif., U.S.A) for 40 min at ambient temperature in 25 μL incubations using [γ-^33P]-ATP. In a final reaction volume of 25 μL corresponding CDK/cyclin (h) (5-10 mU) was incubated with 8 mM MOPS pH 7.0, 0.2 mM EDTA, 0.1 mg/mL histone H1, 10 mM MgAcetate and [γ-^33P-ATP](specific activity approx. 500 cpm/pmol, concentration as required). The reaction was initiated by the addition of the MgATP mix. After incubation for 40 min at room temperature, the reaction was stopped by the addition of 5 μL of a 3% phosphoric acid solution.

CDK1/cyclinB = molecular target: T2, CDK1/cyclinB (Homo sapiens, UniProt P06493); test: Kinase assay ([γ-33P]-ATP, histone H1); assay type: biochemical; details: compound 0.1 μM
T2 construct: purchased Millipore, Dundee, UK (screening service)
T2 sequence (P06493 whole entry): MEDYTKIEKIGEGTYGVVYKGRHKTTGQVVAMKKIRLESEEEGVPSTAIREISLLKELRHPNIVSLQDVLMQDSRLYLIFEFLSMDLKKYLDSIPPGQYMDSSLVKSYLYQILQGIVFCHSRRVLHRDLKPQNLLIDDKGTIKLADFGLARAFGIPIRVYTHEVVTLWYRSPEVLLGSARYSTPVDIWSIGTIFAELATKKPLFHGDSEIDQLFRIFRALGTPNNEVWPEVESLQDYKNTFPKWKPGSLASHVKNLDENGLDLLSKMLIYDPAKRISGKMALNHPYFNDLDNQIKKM
T2 sequence (P14635 whole entry partner): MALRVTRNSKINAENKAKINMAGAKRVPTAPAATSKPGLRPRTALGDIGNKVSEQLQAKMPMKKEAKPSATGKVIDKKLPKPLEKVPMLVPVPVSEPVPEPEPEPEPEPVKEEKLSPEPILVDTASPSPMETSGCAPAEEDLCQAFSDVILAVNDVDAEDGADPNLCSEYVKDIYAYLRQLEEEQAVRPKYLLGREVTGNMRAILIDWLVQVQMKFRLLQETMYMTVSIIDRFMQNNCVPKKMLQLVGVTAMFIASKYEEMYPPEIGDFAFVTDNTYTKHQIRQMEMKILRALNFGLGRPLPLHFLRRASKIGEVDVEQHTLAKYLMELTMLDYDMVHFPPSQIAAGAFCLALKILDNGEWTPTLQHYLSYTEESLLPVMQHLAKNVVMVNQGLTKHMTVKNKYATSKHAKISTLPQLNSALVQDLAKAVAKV
Procedure: as §1, §2

CDK2/cyclinE = molecular target: T3, CDK2/cyclinE (Homo sapiens, UniProt P24941); test: Kinase assay ([γ-33P]-ATP, histone H1); assay type: biochemical; details: read-out: % inhibition of kinase activity, CDK2/cyclinE
T3 construct: purchased Millipore, Dundee, UK (screening service)
Procedure: as §1, §2

CDK3/cyclinE = molecular target: T4, CDK3/cyclinE (Homo sapiens, UniProt Q00526); test: Kinase assay ([γ-33P]-ATP, histone H1); assay type: biochemical; details: read-out: % inhibition of kinase activity, CDK3/cyclinE
T4 construct: purchased Millipore, Dundee, UK (screening service)
Procedure: as §1, §2

CDK7/cyclinH/MATI = molecular target: T5, CDK7/cyclinH/MATI (Homo sapiens, UniProt P50613); test: Kinase assay ([γ-33P]-ATP, histone H1); assay type: biochemical; details: read-out: % inhibition of kinase activity, CDK7/cyclinH/MATI
T5 construct: purchased Millipore, Dundee, UK (screening service)
T5 sequence (P50613 whole entry): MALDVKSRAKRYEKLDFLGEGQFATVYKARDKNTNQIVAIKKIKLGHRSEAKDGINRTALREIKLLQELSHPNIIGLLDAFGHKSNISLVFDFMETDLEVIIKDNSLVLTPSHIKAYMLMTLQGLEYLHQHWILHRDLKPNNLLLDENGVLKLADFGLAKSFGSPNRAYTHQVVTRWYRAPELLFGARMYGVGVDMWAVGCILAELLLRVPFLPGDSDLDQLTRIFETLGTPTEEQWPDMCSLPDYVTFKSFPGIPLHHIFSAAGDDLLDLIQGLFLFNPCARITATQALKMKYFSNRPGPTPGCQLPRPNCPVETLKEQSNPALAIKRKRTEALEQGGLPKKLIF
T5 sequence (P51946 whole entry partner): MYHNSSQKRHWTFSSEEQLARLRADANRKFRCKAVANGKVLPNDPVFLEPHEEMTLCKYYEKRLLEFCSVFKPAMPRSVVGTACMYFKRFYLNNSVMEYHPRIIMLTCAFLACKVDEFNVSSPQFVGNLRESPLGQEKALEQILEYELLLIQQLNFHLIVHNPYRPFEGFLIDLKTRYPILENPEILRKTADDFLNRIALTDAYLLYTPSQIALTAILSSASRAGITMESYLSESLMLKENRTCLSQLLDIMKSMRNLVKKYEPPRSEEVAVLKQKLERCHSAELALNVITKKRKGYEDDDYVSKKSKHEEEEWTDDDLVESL
T5 sequence (P51948 whole entry partner): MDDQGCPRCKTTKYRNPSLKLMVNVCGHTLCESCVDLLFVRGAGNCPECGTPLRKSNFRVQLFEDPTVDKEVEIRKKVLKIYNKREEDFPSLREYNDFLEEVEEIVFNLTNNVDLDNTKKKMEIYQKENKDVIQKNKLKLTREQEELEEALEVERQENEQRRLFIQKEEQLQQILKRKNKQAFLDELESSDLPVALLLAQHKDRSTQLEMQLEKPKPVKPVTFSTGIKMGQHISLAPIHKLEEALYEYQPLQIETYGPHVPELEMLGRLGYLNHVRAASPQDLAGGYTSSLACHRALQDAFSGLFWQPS
Procedure: . The final reaction was carried out in a 25 μL solution. The respective kinases (at […] were incubated with 8 mM MOPS (pH 7.0), 0.2 mM EDTA, 0.1 mg/ml histone H1, 10 mM MgAcetate and [γ-33P-ATP] (specific activity approximately 500 cpm/pmol, concentration as required). The reaction was then initiated by the addition of the MgATP mix. The reaction was stopped after 40 min of incubation by adding 5 μL of a 3% phosphoric acid solution. 10 μL of the reaction was spotted onto a P30 filter mat and washed 3 times for 5 min in 75 mM phosphoric acid and one in methanol prior to drying and counted radioactivity by scintillation counting. […]. Table 1 summarizes the cytotoxic effects of VMY compounds and its controls on breast cancer cell line.
as §2, with “Kinase selectivity of compounds VMY-1-101 and VMY-1-103 were screened at Millipore, Dundee, UK. Briefly” for “Briefly”, “solution. From the reaction, 10 μL was spotted onto a P30 filtermat and washed three times for 5 minutes in 75 mM phosphoric acid and once in methanol prior to dying and scintillation counting.” for “solution.”

MCF-7 [2] = test: Cell viability assay (WST-1); assay type: cell-based, human; details: Homo sapiens, MCF7, 48 h, read-out: IC50 (concentration yielding 50% growth inhibition)
Procedure: (§3) (10%), 2 mM L-glutamine, and 50 μg/mL each of antibiotics, namely penicillin, streptomycin, and neomycin at 37° C. in a humidified incubator containing 5% CO2
(§4) Briefly human breast cancer cells were seeded into a 96-well plate at 3000 cells per well in DMEM containing 10% FBS. Following 24 hours attachment period, compounds were dissolved in DMSO and serially diluted in tissue culture media and added to the cells in triplicate, and incubated for 48 h at 37° C. Control cells were treated with equal amount of DMSO. After 48 h incubation, cell viability was measured by WST-1 assay according to the manufacturer's instructions (Roche). […] The formazan absorbance, which correlates to the number of living cells, was measured at 450 nm and 630 nm as reference filter using a microplate reader. (Ultramark, Microplate Imaging System, Bio-Rad). The IC50 was calculated from the graph of the log of the compound concentration versus the fraction of the surviving cells.

MDA-MB-231 [3] = test: Cell viability assay (WST-1); assay type: cell-based, human; details: Homo sapiens, MDA-MB-231, 48 h, read-out: IC50 (concentration yielding 50% growth inhibition)
Procedure: as §3, §4

MCF-7 [4] = test: Cell cycle analysis by flow cytometry (propidium iodide); assay type: cell-based, human
Procedure: (§5) 5 μM concentrations were used for all drugs tested. The cells were exposed to the vehicle (DMSO) or […] of the CDK inhibitors for 24 hrs. The cell cycle distribution was then assessed using standard procedures.

MDA-MB-231 [5] = test: as above; assay type: cell-based, human
Procedure: as §5

MDA-MB-231 cells = test: Apoptotic signaling, Western blot of apoptosis related proteins; assay type: cell-based, human; details: MDA-MB-231, 10 μM, 48 hours
Procedure: In order to understand whether VMY-1-101 and VMY-1-103 compounds were able to induce apoptotic cell death, the expression of anti- and pro-apoptotic proteins in MDA-MB-231 cells following treatment with 10 μM drugs for 48 hours was evaluated first. […] This is further confirmed with proapoptotic 116 kDa poly (ADP-ribose) polymerase protein (PARP) into its 89-kDa fragments. […].
Western blotting was performed according to literature procedure. In brief, cell pellets were collected at the indicated times after treatment with compounds, suspended in 100 μL of lysis buffer (50 mM Tris-HCl, 150 mM NaCl, 1 mM EGTA, 1 mM EDTA, 20 mM NaF, 100 mM Na3VO4, 0.5% NP-40, 1% Triton X-100, 1 mM PMSF, 5 μg/ml aprotinin, 5 μg/ml leupeptin), vortexed twice and incubated in an ice bath for 30 min. Lysates were cleared by centrifugation at 12000 rpm for 15 min at 4° C. and protein was estimated by detergent compatible BCA protein assay kit (Pierce). Equivalent amounts of total proteins were resolved by SDS-PAGE (10%) and transferred to PVDF membrane. Membranes were blocked by 5% non-fat powdered milk in TBST overnight. Membranes were incubated with indicated primary antibodies for 2 hours followed by HRP-conjugated secondary antibodies for 1 hr and developed using enhanced chemiluminescence kit (Perkin Elmer).

CC[C@H](CO)Nc1nc(Nc2ccc(C(=O)NCCNS(=O)(=O)c3cccc4c(N(C)C)cccc34)c(Cl)c2)c2ncn(C(C)C)c2n1 [VMY-1-101, 2-Chloro-N-[2-(5-dimethylamino-naphthalene-1-sulfonylamino)-ethyl]-4-[2-(1-hydroxymethyl-propylamino)-9-isopropyl-9H-purin-6-ylamino]-benzamide]
inhibition at 0.1 µM [1]: 62%
inhibition at 0.1 µM (CDK1/cyclinB): 16 ± 3%
inhibition at 0.1 µM (CDK2/cyclinE): 87%
inhibition at 0.1 µM (CDK3/cyclinE): 40 ± 3%
inhibition at 0.1 µM (CDK7/cyclinH/MATI): 57%
IC50 (MCF-7 [2]): 19.1 ± 1.14 µM
IC50 (MDA-MB-231 [3]): 4.86 ± 1.24 µM
effect on cell cycle progression (G2/M phase) (MCF-7 [4]; MCF-7, 5, 10 μM, 24 hrs): induced the cell cycle progression in G2/M phase
% G1 (MCF-7 [4]; MCF-7, 24 hrs, 5 μM): 63.56 ± 1.20%
% S (MCF-7 [4]; MCF-7, 24 hrs, 5 μM): 10.75 ± 0.88%
% Sub-G1 (MCF-7 [4]; MCF-7, 24 hrs, 5 μM): 2.08 ± 0.19%
effect on cell cycle progression (G2/M phase) (MDA-MB-231 [5]; MDA-MB-231, 5, 10 μM, 24 hrs): induced the cell cycle progression in G2/M phase
% G1 (MDA-MB-231 [5]; MDA-MB-231, 24 hrs, 5 μM): 51.5 ± 0.50%
% S (MDA-MB-231 [5]; MDA-MB-231, 24 hrs, 5 μM): 25.05 ± 0.45%
% Sub-G1 (MDA-MB-231 [5]; MDA-MB-231, 24 hrs, 5 μM): 2.01 ± 0.19%
PARP cleavage (MDA-MB-231 cells): moderate cleavage of the 116-kDa full length PARP into an 89-kDa fragment
protein level of full length caspase 3 and 7 (MDA-MB-231 cells): decrease in protein level of full length caspase 3 and 7
